Here are results for eight compounds from patent US11524956B2, “Alkyne substituted quinazoline compound and methods of use” (Newgen Therapeutics, Inc., priority 2011, dated 2022).

For one series, the target named is EGFR kinase (Homo sapiens (Human), UniProt P00533). In words: Kinase assay for EGFR (TR-FRET, LanthaScreen). It counts as biochemical. To be noted: read-out: Kinase inhibition IC50 (nM) EGFR. How it is done: The extent to which the compounds of the present invention modulate EGFR kinase activity can be determined using time-resolved Fret (TR-FRET) assay (LanthaScreen® kinase activity assay, from InVitrogen). The assay employs EGFR kinase (PV3872, Invitrogen), Tb-Py20 antibody (PV3552, InVitrogen) and fluorescein-poly GT (PV3610, InVitrogen).
The assay is performed in a Black 384-well plate (available from Corning). EGFR kinase (is diluted in TR-FRET Dilution Buffer (PV3189, InVitrogen) at concentration of 0.4 ug/ml as stock solution, and then 2-fold serial diluted. Addition of 1 mM ATP initiated the reaction, and the reaction is incubated for […] at room temperature. 10 μL of the Tb-antibody (from InVitrogen)+EDTA (from InVitrogen) solution prepared was added to each well of the assay plate and mix briefly, and incubated for 30 min. The signal is monitored by using M5 microplate reader (Ex=332 nm, Em=488 nm and 518 nm). Each compound is tested in duplicate wells. EGFR without compound is used as control. Staurosporine (available from Sigma) is used as positive control compound. Inhibition was calculated as percentage of the EGFR activity (without compound).
Background: TR-FRET usually uses a lanthanide donor and a delayed reading to cut background.

Another series has as its target ErbB2 kinase protein (Homo sapiens (Human), UniProt P04626). Nature of the series: Kinase assay for ErbB2. To be noted: read-out: Kinase inhibition IC50 (nM) ErbB2. It counts as biochemical. How it is done: The assay is performed similarly to the kinase assay for […] as described above, except ErbB2 kinase protein is used instead of EGFR kinase protein.
Another series concerns BT474 cells. Nature of the series: Cell proliferation inhibition assay for BT474 (CCK-8). It counts as cell-based. To be noted: Homo sapiens, BT-474; 72h. The method, then:
Human breast cancer BT474 cells was cultured in low glucose DMEM (Life Technologies 12320-032) containing 10% fetal bovine serum (FBS) at 37° C. in a humidified 10% CO2, 90% air incubator. Cells were harvested using trypsin EDTA, counted using a haemocytometer, and plated 10000 cell/well in a 96-well clear tissue culture plate. The cells were incubated for 24 h at 37° C. to allow adherence. A serials of concentrations of each compound (ranging from 30 um to 0.16 nM, 5-fold dilution) in 96-well plate, and incubated for 72h. Each concentration was tested in triplicate wells. During the cell proliferation assay, BT474 cells were cultured in low-glucose DMEM containing 5% FBS, 50 ug/ml gentamicin, and 0.3% v/v DMSO. The culture medium was removed via aspiration, and the cell viability was detected by using CCK-8 cell proliferation kit. The IC50 value measured for each compound in Examples 1 to 7 is <100 nM.

The next series concerns NCI-N87 xenograft. In words: In vivo efficacy in NCI-N87 xenograft mouse model. To be noted: 80 mg/kg p.o. bid. How it is done: NCI-N87 cell line was purchased from ATCC (American Type Culture Collection) and was cultured in RPMI1640+10% FBS+1% P/S antibiotics.
Male Balb/c nude mice, 6-8 week, 18±2 g (supplier: Shanghai SLAC Laboratory Animal Co. Ltd.) were used for the experiment. The purchased mice were adapted to the environment for 7 days before use, and were housed at 22-25° C. with humidity 40-70%, and light cycle with fluorescent light for 12-hour light (8:00-20:00) 12-hour dark. The mice have free access to food and water.
The cancer cells (NCI-N87) were implanted subcutaneous into the nude mice (right flank) with 5.0×10^6 cells in 0.1 ml PBS (50 mice). When the tumor size reaches a volume of 200 (150-200) mm^3, the tumor-bearing nude mice were randomly assigned into groups (10 mice/group), one group was served as vehicle, one group was administrated with Lapatinib ditosylate monohydrate (80 mg/kg, free base of Lapatinib, not salt, p.o. […]). The other two groups were administrated with NT113 (also referred to as KID 113) ((15 and 30 mg/kg, p.o.q.d, respectively). The administration period lasted for 4 weeks.
The mice were monitored twice daily for appearance and behavior, and for signs of morbidity and/or mortality. The tumor volume was measured twice a week, and the body weight was measured immediately before measuring the tumor volume throughout the whole study.
At end of the experiment (compound administration for four weeks), all the tumor-bearing mice were sacrificed by cervical dislocation under deep anesthesia. The tumor mass was resected, and weighed.
Tumor sizes were measured twice weekly in two dimensions using a caliper, and the volume was expressed in mm^3 using the formula: V=½×a×b^2 where a and b are the long and short diameters of the tumor, respectively. The tumor mass was weighed at the end of the experiment after harvested.
V=½×a×b^2 (a, h is maximum and minimum diameters respectively).
RTV (Relative Tumor Volume)=Vt/Vo • Vo is the tumor volume when the test article is initial administrated • Vt is the tumor volume of every measurement day after test article administration
T/C (%)=TRTV/CRTV×100% • TRTV: RTV of test article-treatment group; CRTV: RTV of control group Inhibition rate (%)=(average tumor volume of control group average cancer volume of test article treatment group)/average tumor volume of control group×100%
The tumor-bearing mice were treated for 4 weeks with different doses of KU (15 mg/kg, 30 mg/kg, […]), qd) and Lapatinib KUA-1, 80 mg/kg, p.o., bid, 7 days/week. At the day-7 after treatment, the RTV TIC KU113 (15 mg/kg, 30 mg/kg) groups were <30%, and the tumor growth inhibition was >70%. but the RTV TIC was 31% and tumor growth inhibition rat was 69% in the lapatinib group. The same result was observed as well when it comes to the tumor weight. On day 28 after treatment, all the tumor-bearing mice were sacrificed, and all the tumor masses were harvested to weigh.

A short description of series [1]: Rat pharmacokinetics studies (plasma). To be noted: rat. It counts as in vivo, Sprague Dawley rats. How it is done:
Sample preparation: The test article each was dissolved in 10% DMSO and 90% of (40% HP-β-CD in deionized water) to yield concentration at 2 mg/mL for intravenous and oral administration.
Method development and plasma samples analysis were performed by Analytical Sciences Division of the Testing Facility by means of LC-MS/MS. The analytical results were confirmed using quality control samples for intra-assay variation (within day variation). The accuracy of >66% of the quality control samples was between 80-120% of the known value(s).
Each group consisted of 3 male Sprague Dawley rats (7-8 week old, 200-300 g body weight). The test articles were administered by a single bolus intravenous injection via the lateral tail vein or via oral gavage.
Blood samples (approximately 300 μl) were collected via retro-orbital puncture after anaesthesia using mixed gas (CO2:O2=7:3) into tubes containing EDTA-K3 anticoagulant at appropriate time points. 10 time points (Groups 1-2): Pre-dose and post-dose at 5 min, 15 min, 30 min, 1 h, 2 h, 4 h, 6 h, 8 h and 24 h.
Analysis: The PK blood samples were centrifuged at approximately 8000 rpm for (3 minutes at 2-8° C. and the resulting plasma were separated and stored frozen at approximately −80° C. (following separation, the plasma may be initially placed on ice prior to being stored in the −80° C. freezer). All the plasma samples were labeled with detailed information such as study number, animal number, matrix, time points of collection and date of collection.
Standard set of parameters including Area Under the Curve (AUC(0-t) and AUC(0-∞)), elimination half-live (T1/2), maximum plasma concentration (Cmax), time to reach maximum plasma concentration (Tmax), clearance (CL), and volume of distribution (Vz) will be calculated using noncompartmental analysis modules in FDA certified pharmacokinetic program WinNonlin Professional v5.2 (Pharsight, USA) by the Study Director. Furthermore, the Bioavailability will be estimated using the following formula:
• AUC(0-t) Area under the curve from the time of dosing to the last measurable concentration • AUC(0-∞) Area under the curve from the time of dosing extrapolated to infinity, based on the last observed concentration • CL Total body clearance, CL=Dose/AUC • Cmax Maximum observed concentration, occurring at Tmax • F Bioavailability • MRT(0-∞) Mean residence time from the time of dosing to infinity • Tmax Time of maximum observed concentration • T1/2 Terminal half-life=In(2)/λz • Vz Volume of distribution based on the terminal phase

A short description of a further series: Rat brain concentration. It counts as in vivo, Sprague Dawley rats. To be noted: predetermined time points. The method, then: Brain concentration: Three rats are for brain collection (2h) only. Three rats are for brain collection (4 h) only. The rest 3 rats are for plasma (9 time points) and brain collection (24h).
Brain Collection and Tissue Processing: Post blood collection, the brain was first perfused intracardially with ˜150 mL of ice-cold, 0.1 M Phosphate Buffered Saline (PBS) at pH7.4. Then, the dura was removed before weighing the brain. The brain was then dissected into smaller pieces, rinsed twice with ˜10 mL PBS, and then flash frozen on dry ice, and stored at −80° C. before analysis.
Before tissue processing, rat brains were thawed. For the preparation of analytical standards, purchased frozen rat brains (from Pelfreez) were similarly thawed, dissected, rinsed with PBS, and 100 μL of Compound A stock solution (at 500 ng/mL and 1, 2 5, 10, and 50 μg/mL in acetonitrile) was spiked directly into the tissue. Both Compound A dosed and spiked brains then underwent the same processing procedures described below.
Briefly, 2 mL of water was added to each brain before homogenization. Homogenize the brain in 2 to 3 sessions, each approximately 15 sec. The mechanical probe of the homogenizer was cleansed in water, 70% ethanol, and ethyl acetate after each sample. The resulting brain homogenates were then extracted with ethyl acetate three times (14 mL total), and centrifuged to separate the aqueous and organic phases after each extraction. Per brain, pooled organic phase were evaporated under a stream of nitrogen at 40° C. and the residues were reconstituted with 4 mL of mobile phase B. Compound A spiked brain samples in the 4 mL solutions had final concentrations of 12.5, 25, 50, 125, 250, 1250 ng/mL. The reconstituted samples were incubated for ˜15 minutes at 60° C. and, vortexed for 10 minutes to fully dissolve the analytes. The samples were centrifuged, and then further diluted with Mobile phase B (shown below) before LC/MS/MS analysis. Dilute 20 μL of reconstituted samples with 1.5 mL mobile phase B. Transfer and inject supernatant to […] system for analysis.

Structures are written as SMILES. Entries after “also recorded” stand apart in the source; their conditions may differ.

Chain of EGFR kinase (P00533 668-1210): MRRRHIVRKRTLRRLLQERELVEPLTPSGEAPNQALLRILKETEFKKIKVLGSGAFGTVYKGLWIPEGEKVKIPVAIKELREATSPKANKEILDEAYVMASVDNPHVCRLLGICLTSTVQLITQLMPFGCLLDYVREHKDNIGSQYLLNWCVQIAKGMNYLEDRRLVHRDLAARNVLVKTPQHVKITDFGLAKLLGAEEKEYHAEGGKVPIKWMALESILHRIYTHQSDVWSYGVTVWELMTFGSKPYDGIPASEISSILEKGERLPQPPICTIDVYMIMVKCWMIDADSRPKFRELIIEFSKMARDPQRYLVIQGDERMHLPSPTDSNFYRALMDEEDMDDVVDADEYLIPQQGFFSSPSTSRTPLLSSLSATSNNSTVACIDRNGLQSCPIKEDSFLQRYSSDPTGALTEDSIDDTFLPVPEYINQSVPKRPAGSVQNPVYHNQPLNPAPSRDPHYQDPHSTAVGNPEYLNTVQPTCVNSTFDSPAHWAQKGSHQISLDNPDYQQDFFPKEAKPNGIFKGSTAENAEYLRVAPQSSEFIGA
Chain of ErbB2 kinase protein (P04626 23-1255): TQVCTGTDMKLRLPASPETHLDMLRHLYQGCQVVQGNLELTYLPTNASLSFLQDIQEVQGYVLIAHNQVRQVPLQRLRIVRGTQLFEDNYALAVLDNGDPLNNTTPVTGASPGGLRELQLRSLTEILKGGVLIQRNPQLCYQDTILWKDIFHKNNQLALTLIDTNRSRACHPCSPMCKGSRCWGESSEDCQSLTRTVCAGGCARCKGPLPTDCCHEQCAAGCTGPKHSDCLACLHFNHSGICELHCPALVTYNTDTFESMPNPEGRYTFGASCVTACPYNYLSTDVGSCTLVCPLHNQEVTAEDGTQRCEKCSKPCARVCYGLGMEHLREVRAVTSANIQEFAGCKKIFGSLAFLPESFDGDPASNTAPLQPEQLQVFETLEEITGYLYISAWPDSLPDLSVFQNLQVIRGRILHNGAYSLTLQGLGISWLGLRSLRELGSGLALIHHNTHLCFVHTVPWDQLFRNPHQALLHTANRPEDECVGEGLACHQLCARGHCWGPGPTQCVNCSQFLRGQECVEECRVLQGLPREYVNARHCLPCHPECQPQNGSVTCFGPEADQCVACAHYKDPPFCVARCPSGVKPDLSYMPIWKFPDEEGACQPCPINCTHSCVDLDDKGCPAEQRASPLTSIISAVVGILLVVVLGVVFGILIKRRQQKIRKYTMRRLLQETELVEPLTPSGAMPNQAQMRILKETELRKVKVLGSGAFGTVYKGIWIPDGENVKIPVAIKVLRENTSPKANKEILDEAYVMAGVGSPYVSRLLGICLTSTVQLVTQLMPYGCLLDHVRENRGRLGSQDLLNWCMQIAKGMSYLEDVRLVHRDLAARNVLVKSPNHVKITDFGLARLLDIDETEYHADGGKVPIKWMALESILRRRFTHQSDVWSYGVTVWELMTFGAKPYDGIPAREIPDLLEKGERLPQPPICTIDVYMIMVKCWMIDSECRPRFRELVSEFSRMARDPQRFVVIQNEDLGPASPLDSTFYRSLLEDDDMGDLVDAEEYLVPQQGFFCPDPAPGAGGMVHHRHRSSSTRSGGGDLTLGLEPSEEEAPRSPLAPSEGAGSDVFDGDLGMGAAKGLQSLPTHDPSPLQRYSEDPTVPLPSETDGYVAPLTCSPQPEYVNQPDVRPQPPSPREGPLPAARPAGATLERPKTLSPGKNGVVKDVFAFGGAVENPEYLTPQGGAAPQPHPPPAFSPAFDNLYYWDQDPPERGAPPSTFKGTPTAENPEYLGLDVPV

In general, IC50 refers to the concentration needed to halve the response being measured. Consider `CN(C)C/C=C/C(=O)Nc1cc2c(Nc3ccc(F)c(Cl)c3)ncnc2cc1C#CC1CCOC1` (stereo not shown) [Example 1, (E)-N-(4-(3-chloro-4-fluorophenylamino)-7-(2-(tetrahydrofuran-3-yl)ethynyl)quinazolin-6-yl)-4-(dimethylamino)but-2-enamide], for which the IC50 at EGFR kinase, on ErbB2 kinase protein and in the series on BT474 cells was less than 100 nM in each case.
Turning to `CN(C)C/C=C/C(=O)Nc1cc2c(Nc3ccc(F)c(Cl)c3)ncnc2cc1C#C[C@@H]1CCCO1` [Example 2, (E)-N-(4-(3-chloro-4-fluorophenylamino)-7-(2-((S)-tetrahydrofuran-2-yl)ethynyl)quinazolin-6-yl)-4-(dimethylamino)but-2-enamide], the IC50 at EGFR kinase, on ErbB2 kinase protein and in the series on BT474 cells was less than 100 nM in each case.
With `CN(C)C/C=C/C(=O)Nc1cc2c(Nc3ccc(F)c(Cl)c3)ncnc2cc1C#C[C@H]1CCCO1` [Example 3, (E)-N-(4-(3-chloro-4-fluorophenylamino)-7-(2-((R)-tetrahydrofuran-2-yl)ethynyl)quinazolin-6-yl)-4-(dimethylamino)but-2-enamide], the half-inhibitory concentration (IC50) on EGFR kinase, at ErbB2 kinase protein and in the series on BT474 cells was less than 100 nM in each case.
As to `CN(C)C/C=C/C(=O)Nc1cc2c(Nc3ccc(F)c(Cl)c3)ncnc2cc1C#CC12COCC1C2` (stereo not shown) [Example 5, (E)-N-(4-(3-chloro-4-fluorophenylamino)-7-(2-(3-oxa-bicyclo[3.1.0]hexan-1-yl)ethynyl)quinazolin-6-yl)-4-(dimethylamino)but-2-enamide], the IC50 at EGFR kinase, at ErbB2 kinase protein and in the series with BT474 cells was less than 100 nM throughout.
For `CN(C)C/C=C/C(=O)Nc1cc2c(Nc3ccc(F)c(Cl)c3)ncnc2cc1C#C[C@]12COC[C@H]1C2` [Example 6, (E)-N-(4-(3-chloro-4-fluorophenylamino)-7-(2-((1R,5S)-3-oxa-bicyclo[3.1.0]hexan-1-yl)ethynyl)quinazolin-6-yl)-4-(dimethylamino)but-2-enamide], the IC50 on EGFR kinase, at ErbB2 kinase protein and in the series with BT474 cells was less than 100 nM in each case.
As to `CN(C)C/C=C/C(=O)Nc1cc2c(Nc3ccc(F)c(Cl)c3)ncnc2cc1C#C[C@@]12COC[C@@H]1C2` [Example 7, (E)-N-(4-(3-chloro-4-fluorophenylamino)-7-(2-((1S,5R)-3-oxa-bicyclo[3.1.0]hexan-1-yl)ethynyl)quinazolin-6-yl)-4-(dimethylamino)but-2-enamide], the IC50 at EGFR kinase, on ErbB2 kinase protein and with BT474 cells was less than 100 nM throughout.
Turning to `CS(=O)(=O)CCNCc1ccc(-c2ccc3ncnc(Nc4ccc(OCc5cccc(F)c5)c(Cl)c4)c3c2)o1` [Lapatinib, reference compound], in the series with NCI-N87 xenograft (day 28 (last day of the study)), the tumor inhibition rate turned out to be 92.9%. For the same compound, in the series with NCI-N87 xenograft (day-7 after treatment), the “RTV T/C” value is given as 31% and the “tumor growth inhibition rate” value came out at 69%.
Take `CN(C)C/C=C/C(=O)Nc1cc2c(Nc3ccc(F)c(Cl)c3)ncnc2cc1O[C@H]1CCOC1` [afatinib, reference compound]: in series [1], the “rat PK (qualitative)” value is listed as “poor PK”. Further, the Kp in “Rat brain concentration” (Sprague Dawley, brain/plasma, read-out: Brain/plasma concentration ratio) was less than 0.05. Moreover, in the series “Rat brain concentration”, the brain concentration is less than 1 ng/g and the “brain concentration (detectability)” value was “no detectable brain concentration; also recorded: below detection limit”.
